The values that follow come from patent publication EP3959200B1, “NEW TRIAZOLE AND TRIAZOLOTHIADIAZINE DERIVATIVES EXERTING CYTOTOXIC AND APOPTOTIC EFFECTS ON A549 CELLS THROUGH AKT INHIBITION” (Anadolu Universitesi, priority 2020, dated 2022).

≈ marks a conversion by molar mass, not a printed value.

The subject of data set [1] is NIH/3T3 mouse embryonic fibroblast cells. The data set can be described thus: MTT cytotoxicity assay. In kind it is cell-based. Particulars: for IC50: Mus musculus, NIH3T3, 24 hours, read-out: IC50 values NIH/3T3 cell line. The procedure:
(§1) In order to be used from this stock, the concentrations ranging from 0.12 to 500 µg/mL (with the highest DMSO ratio of 0.1%) were prepared.
NIH/3T3 mouse embryonic fibroblast cells (ATCC® CRL-1658™) were grown in DMEM medium supplemented with 10% fetal bovine serum, 1% penicillin/streptomycin, in an incubator with carbon dioxide, in a culture medium at 37°C at 95% relative humidity.
(§2) MTT protocol was applied to determine cell viability. […] At the end of the incubation period, 20 µL of MTT dye (5 mg/mL) was added into each well, and the cells were incubated for an additional 4 hours at 37°C. After this process, MTT dye was removed from the cells, 200 µL of DMSO was added to each well and left to incubate for 10 minutes. Color change was detected at 540 nm in the ELx808-IU Bio-Tek plate reader. Inhibition% values were determined for each concentration of compounds. Inhibitory concentration 50 (IC50) values of the compounds were calculated by drawing a dose-response curve with their concentrations against these values. All experiments were carried out in triplicate. The results were given as mean±standard deviation. Inhibition% = 100−[(ODtest compound−ODblank/ODsolvent control−ODblank)×100] [formula]

Data set [2] deals with A549 human lung adenocarcinoma cells. The data set can be described thus: MTT cytotoxicity assay. In kind it is cell-based. Particulars: for IC50: Homo sapiens, A549, MTT, 24 hours, read-out: IC50 values A549 cell line; for cytotoxic effects on A549 cell line: in the tested concentration range (0.12-500 µg/mL), result in words; for SI values: SI= IC50 for NIH/3T3 cell line / IC50 for A549 cell line. The method, then:
as §1
A549 human lung adenocarcinoma cells (ATCC® CCL-185™) were grown in RPMI 1640 medium supplemented with 10% fetal bovine serum, 1% penicillin/streptomycin, in an incubator with carbon dioxide, in a culture medium at 37°C at 95% relative humidity.
as §2
Selective index (SI) values were determined using the following formula. SI […] IC50 for NIH/3T3 cell line/IC50 for A549 cell line [formula]

For data set [3], the system named is Akt. The experiment in a line: Akt activity assay (Akt colorimetric in cell ELISA). In kind it is cell-based, human. Particulars: for Inhibition % / IC50 value (Akt inhibitory effects): 24 hours; for Akt inhibitory effects: result in words. The procedure:
Briefly, the media was removed from the wells and 100 µL of 4% formaldehyde was added. The plate was incubated for 15 minutes in a fume hood. Formaldehyde was removed and the plate was washed twice with 1X […] solution (TBS) to 100 µL/well. 1X TBS was removed and 100 µL of 1X permeabilization buffer was added to each well and left at room temperature for 15 minutes. After removing the 1X permeabilization buffer, the wells were washed once with 100 µL of 1X TBS. 1X TBS was removed and 100 µL of the quenching solution was added to the wells and left at room temperature for 20 minutes. Then, this solution was removed. The plate was washed once with 1X TBS, 100 µL of blocking buffer was added to the wells and left at room temperature for 30 minutes. At the end of this period, the blocking buffer was removed and 50 µL of primary antibody was added to the wells. The plate was closed with a sealer and incubated overnight at 4°C. The primary antibody was removed and plate wells were washed three times with 100 µL of wash buffer. After removing the wash buffer, 100 µL of diluted horseradish peroxidase (HRP) conjugate was added to the wells. It was incubated for 30 minutes at room temperature. After removing this conjugate, 100 µL of 3,3',5,5'-tetramethylbenzidine (TMB) stop solution was added and absorbance was measured at 450 nm for 30 minutes. The experiment was carried out in triplicate. The values of the blank wells were subtracted from the values of the untreated control and treated cells. The Akt activity% was determined as the relative absorbance of treated versus untreated control cells.

Data set [4] relates to A549 cells. The data set can be described thus: FITC Annexin V/PI apoptosis detection by flow cytometry. It counts as cell-based, human. Particulars: for Early apoptotic cells % / Late apoptotic cells % / Necrosis % / Viable cells% / apoptotic activity: at IC50 concentrations; for apoptotic activity: early plus late apoptotic cells; for apoptosis induction: flow cytometry, result in words. The procedure:
The cells incubated with the compounds were centrifuged at 400 × g for 5 minutes in labeled tubes and washed twice with 1xPBS. Then, the cells were suspended in 1×Annexin-V binding solution at 1×10^6 cells/mL and 100 µL of this cell solution was taken and transferred to tubes. The cells were treated with 5 µL Annexin V FITC and 5 µL of propidium iodide (PI) dyes. Then, the cells were kept at room temperature in the dark for 15 minutes to allow the dye to bind. 400 µL of 1×Annexin-V binding cell solution was transferred to flow cytometry tubes and the amount of early and late apoptotic cells was determined relative to the positive control using the BD FACSAria flow cytometer FACSDiva version 6.1.1 software.
(In flow cytometry, cells or beads pass a laser one at a time.)

Consider `N#Cc1ccc(C2=Nn3c(CCc4cccnc4)nnc3SC2)cc1` [Compound 2f, G-(4-Cyanophenyl)-3-(2-(pyridine-3-yl)ethyl)-7H-[1,2,4]triazolo[3,4-b][1,3,4]thiadiazine], for which, in data set [1], the IC50 was above 500 µg/mL. Moreover, in data set [2], the IC50 was above 500 µg/mL and the “cytotoxic effects on A549 cell line” value is “did not show cytotoxic effects”.

As to `Cc1ccc2nc(NC(=O)CSc3nnc(CCc4cccnc4)n3N)sc2c1` [Compound 3f, 2-((4-Amino-5-(2-(pyridine-3-yl)ethyl)-4H-1,2,4-triazole-3-yl)thio)-N-(6-methylbenzothiazole-2-yl)acetamide], in data set [1], the IC50 is above 500 µg/mL. For the same compound, the Inhibition % in data set [3] (3.25 µg/mL) came to 37.59±9.46%. In data set [3] (6.50 µg/mL), this compound had an Inhibition % of 40.29±11.27%. Further, the Akt inhibitory effects result in data set [3] is “did not show significant Akt inhibitory effects”. For the same compound, in data set [4], the “Early apoptotic cells %” value was 1.9%, the “Late apoptotic cells %” value is recorded as 7.7%, the Necrosis % is recorded as 5.8% and the Viable cells% turned out to be 84.6%. In addition, in data set [4], the apoptotic activity is recorded as 9.6% and the apoptosis induction entry was “induce apoptosis”. In addition, in data set [2], the IC50 amounted to 6.5 ± 0.5 µg/mL (≈ 15.3 µM) and the SI values is given as above 76.92.

As for `Nn1c(CCc2cccnc2)nnc1SCC(=O)Nc1nc2ccc(Cl)cc2s1` [Compound 3d, 2-((4-Amino-5-(2-(pyridine-3-yl)ethyl)-4H-1,2,4-triazole-3-yl)thio)-N-(6-chlorobenzothiazole-2-yl)acetamide], the IC50 in data set [1] worked out at 4.9 ± 0.36 µg/mL (≈ 11 µM). Moreover, the Inhibition % in data set [3] (0.98 µg/mL) amounted to 80.23±7.70%. In data set [3] (1.95 µg/mL), this compound had an Inhibition % of 76.94±10.75%. Also, the Inhibition % in data set [3] (3.90 µg/mL) worked out at 100.00%. Further, the “IC50 value (Akt inhibitory effects)” value in data set [3] came to 0.19 ± 0.05 µg/mL (≈ 0.426 µM). Also, in data set [4], the “Early apoptotic cells %” value is given as 1.8%, the “Late apoptotic cells %” value is 6.3%, the Necrosis % was found to be 4.8% and the Viable cells% stood at 87.2%. In data set [4], the apoptotic activity is listed as 8.1% and the apoptosis induction entry is reported as “induce apoptosis”. In data set [2], the IC50 was found to be 0.34 ± 0.02 µg/mL (≈ 0.762 µM) and the SI values was 14.41.

In the case of `c1ccc(C2=Nn3c(CCc4cccnc4)nnc3SC2)cc1` [Compound 2a, 6-Phenyl-3-(2-(pyridine-3-yl)ethyl)-7H-[1,2,4]triazolo[3,4-b][1,3,4]thiadiazine], the IC50 in data set [1] was above 500 µg/mL. In data set [3] (1.81 µg/mL), this compound returned an Inhibition % of 8.75±2.77%. The Inhibition % in data set [3] (3.62 µg/mL) is recorded as 7.69±2.91%. For the same compound, the Inhibition % in data set [3] (7.23 µg/mL) worked out at 35.45±5.82%. In addition, the Akt inhibitory effects entry in data set [3] is listed as “did not show significant Akt inhibitory effects”. In data set [4], the “Early apoptotic cells %” value came out at 1.7%, the “Late apoptotic cells %” value is recorded as 2.7%, the Necrosis % is recorded as 0.7% and the Viable cells% is recorded as 95.0%. In addition, in data set [2], the IC50 came out at 7.23 ± 1.62 µg/mL (≈ 22.5 µM) and the SI values is above 69.16.

Regarding `Brc1ccc(C2=Nn3c(CCc4cccnc4)nnc3SC2)cc1` [Compound 2e, G-(4-Bromophenyl)-3-(2-(pyridine-3-yl)ethyl)-7H-[1,2,4]triazolo[3,4-b][1,3,4]thiadiazine], the IC50 in data set [1] was above 500 µg/mL. Also, in data set [2], the IC50 is above 500 µg/mL and the “cytotoxic effects on A549 cell line” value was “did not show cytotoxic effects”.

As to `CCn1c(-c2nonc2N)nc2c(C#CC(C)(C)O)ncc(OC[C@H]3CCCNC3)c21` [GSK690693, reference compound], the figures for the Inhibition % in data set [3] (1.50 µg/mL), in data set [3] (3.075 µg/mL) and in data set [3] (6.15 µg/mL) were 34.46±1.47%, 49.88±5.55% and 100%, respectively. Besides, the “IC50 value (Akt inhibitory effects)” value in data set [3] worked out at 2.93 ± 0.23 µg/mL (≈ 6.89 µM). The IC50 in data set [2] worked out at 6.15 ± 0.49 µg/mL (≈ 14.5 µM).

On to `FC(F)(F)c1ccc(C2=Nn3c(CCc4cccnc4)nnc3SC2)cc1` [Compound 2g, 3-(2-(Pyridine-3-yl)ethyl)-6-(4-(trifluoromethyl)phenyl)-7H-[1,2,4]triazolo[3,4-b][1,3,4]thiadiazine], for which the IC50 in data set [1] was above 500 µg/mL. For the same compound, in data set [2], the IC50 is above 500 µg/mL and the “cytotoxic effects on A549 cell line” value is “did not show cytotoxic effects”.

`Nn1c(CCc2cccnc2)nnc1SCC(=O)Nc1nc2ccc(F)cc2s1` [Compound 3c, 2-((4-Amino-5-(2-(pyridine-3-yl)ethyl)-4H-1,2,4-triazole-3-yl)thio)-N-(6-fluorobenzothiazole-2-yl)acetamide]: the IC50 in data set [1] turned out to be 170 ± 17.3 µg/mL (≈ 396 µM). Further, the Inhibition % in data set [3] (0.07 µg/mL) was 15.28±5.56%. The same compound came in with an Inhibition % in data set [3] (0.14 µg/mL) of 36.64±13.39%. The Inhibition % in data set [3] (0.27 µg/mL) worked out at 39.84±6.49%. Besides, in data set [3], the Akt inhibitory effects result is listed as “did not show significant Akt inhibitory effects”. Moreover, in data set [4], the “Early apoptotic cells %” value is 0.5%, the “Late apoptotic cells %” value is 3.7%, the Necrosis % worked out at 4.0% and the Viable cells% came out at 91.8%. Besides, in data set [2], the IC50 turned out to be 0.27 ± 0.02 µg/mL (≈ 0.629 µM) and the SI values came out at 629.63.

Regarding `Nn1c(CCc2cccnc2)nnc1SCC(=O)Nc1nccs1` [Compound 3a, 2-((4-Amino-5-(2-(pyridine-3-yl)ethyl)-4H-1,2,4-triazole-3-yl)thio)-N-(thiazole-2-yl)acetamide], the IC50 in data set [1] came out at 207 ± 11.6 µg/mL (≈ 572 µM). For the same compound, in data set [3] (0.48 µg/mL), the Inhibition % worked out at 54.76±5.33%. In addition, the Akt inhibitory effects entry in data set [3] is “did not show significant Akt inhibitory effects”. For the same compound, in data set [4], the “Early apoptotic cells %” value came out at 0.4%, the “Late apoptotic cells %” value was found to be 3.1%, the Necrosis % is reported as 5.6% and the Viable cells% is reported as 91.0%. In addition, in data set [2], the IC50 was 0.48 ± 0.04 µg/mL (≈ 1.33 µM) and the SI values was 430.54.

In the case of `COc1ccc(C2=Nn3c(CCc4cccnc4)nnc3SC2)cc1` [Compound 2i, G-(4-Methoxyphenyl)-3-(2-(pyridine-3-yl)ethyl)-7H-[1,2,4]triazolo[3,4-b][1,3,4] thiadiazine], the “IC50 values NIH/3T3 cell line” value in data set [1] (24 hours) was below 3.90 µg/mL. In addition, the IC50 in data set [1] is below 3.9 µg/mL; in data set [2], 13.7 ± 2.52 µg/mL (≈ 38.9 µM).

For the compound `Nn1c(CCc2cccnc2)nnc1SCC(=O)Nc1nc2ccc(Br)cc2s1` [Compound 3e, 2-((4-Amino-5-(2-(pyridine-3-yl)ethyl)-4H-1,2,4-triazole-3-yl)thio)-N-(6-bromobenzothiazole-2-yl)acetamide], in data set [1], the IC50 was above 500 µg/mL. In addition, in data set [2], the IC50 worked out at 362 ± 12.6 µg/mL (≈ 737 µM) and the SI values is reported as above 1.38.

Consider `Cc1ccc(C2=Nn3c(CCc4cccnc4)nnc3SC2)cc1` [Compound 2h, 3-(2-(Pyridine-3-yl)ethyl)-6-(p-tolyl)-7H-[1,2,4]triazolo[3,4-b][1,3,4]thiadiazine], for which, in data set [1], the IC50 was above 500 µg/mL. Further, in data set [2], the IC50 was determined as 41.3 ± 0.58 µg/mL (≈ 123 µM) and the SI values is recorded as above 12.10.
